Where a SMILES comes first, the peptide text is derived from it.

The data set concerns RAW 264.7 normal macrophages. The format is cell-based. From the text:
(4) detection of effects of respective components (WGPH-I, WGPH-II, and WGPH-III) on the proliferation activity of RAW 264.7 normal macrophages by a methyl thiazolyl tetrazolium (MTT) assay
RAW 264.7 macrophages in a logarithmic growth phase are taken and prepared into a cell suspension of 3×10^4 cells/mL in a RPIM 1640 culture medium containing 10% FBS. Sample wells are set in a 96-well plate (also referred to as 96-well tissue culture plates), and 100 microliters (μL) of cell suspension are added to each sample well, and the cells are cultured in a cell incubator for 12 h to make the cells adhere to the wall. After removing the culture medium in the sample wells, different components WGPH-I (>3 kDa), WGPH-II (1˜3 kDa), and WGPH-III (<1 kDa) are dissolved in RPIM 1640 culture medium containing 10% FBS to prepare different concentrations of oligopeptide culture medium (0, 50, 100, 200, and 300 μg/mL) respectively, and then added to respective sample wells, 100 μL per well. A blank well is set, and compared with the sample wells, there is no cell, with 100 μL PBS instead of the oligopeptide culture medium. A control well is set, compared with the sample wells, there is cells, with 100 μL PBS instead of oligopeptide culture medium. […] The absorbance is measured at a wavelength of 570 nanometers (nm) in the microplate reader. […]

`C[C@H](N)C(=O)N1CCC[C@H]1C(=O)N[C@@H](CCC(=O)O)C(=O)N1CCC[C@H]1C(=O)N[C@@H](CCC(=O)O)C(=O)N1CCC[C@H]1C(=O)N[C@@H](C)C(=O)N[C@@H](Cc1ccccc1)C(=O)O` [oligopeptide] (H-APEPEPAF-OH): the “effect on the proliferation activity of macrophages” value is on record as “no effect”.
